From US10093630B2, “Pyrazole compounds and methods of making and using same” (ABIDE THERAPEUTICS, INC., priority 2014, dated 2018)
Read-outs that look alike come from different tables or passages of the source.

Columns and labels:
Assay in all cases: In vitro competitive activity-based protein profiling (gel-based, FP-Rh or HT-01 probe)
Format in all cases: biochemical
PLA2G7 = target: T1, PLA2G7 (Mus musculus, UniProt Q60963); details: for inhibition at 1 µM: 1 μM inhibitor, read-out: % Inhibition at 1 μM, D = PLA2G7; for inhibition at 10 µM: 10 μM inhibitor, read-out: % Inhibition at 10 μM, D = PLA2G7
T1 construct: Proteomes (mouse brain membrane fraction or cell lysates); from tissue; host or cells: mouse brain membrane fraction (or cell lysates, not specified)
T1 sequence (Q60963 22-440): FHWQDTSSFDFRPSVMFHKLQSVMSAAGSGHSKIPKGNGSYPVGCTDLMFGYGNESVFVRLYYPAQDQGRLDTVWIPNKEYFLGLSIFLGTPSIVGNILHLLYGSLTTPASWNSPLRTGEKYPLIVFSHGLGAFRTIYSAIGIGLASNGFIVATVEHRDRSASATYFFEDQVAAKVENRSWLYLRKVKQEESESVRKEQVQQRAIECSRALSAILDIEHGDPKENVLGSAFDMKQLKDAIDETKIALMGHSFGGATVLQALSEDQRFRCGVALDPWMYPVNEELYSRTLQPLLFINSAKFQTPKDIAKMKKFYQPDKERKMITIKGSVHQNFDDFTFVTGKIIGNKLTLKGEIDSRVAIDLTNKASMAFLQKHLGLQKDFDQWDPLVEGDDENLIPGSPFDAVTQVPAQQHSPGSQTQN
Experimental: (§1) In Vitro Competitive Activity-Based Protein Profiling.
(§2) Proteomes (mouse brain membrane fraction or cell lysates) (50 μL, 1.0 mg/mL total protein concentration) were preincubated with varying concentrations of inhibitors at 37° C. After 30 min, FP-Rh or HT-01 ([…], 50 μM in DMSO) was added and the mixture was incubated for another 30 min at 37° C. Reactions were quenched with SDS loading buffer (15 μL—4×) and run on SDS-PAGE. Following gel imaging, serine hydrolase activity was determined by measuring fluorescent intensity of gel bands corresponding to MAGL, ABHD6, FAAH, and PLA2G7 using ImageJ 1.43u software.

FAAH = target: T2, FAAH (Mus musculus, UniProt O08914); details: for inhibition at 10 µM: 10 μM inhibitor, read-out: % Inhibition at 10 μM, B = FAAH; for inhibition at 1 µM: 1 μM inhibitor, read-out: % Inhibition at 1 μM, B = FAAH; for IC50: mouse brain membrane fraction or cell lysates, 30 min preincubation at 37° C., read-out: Mouse (IC50 value, nM) FAAH
T2 construct: Proteomes (mouse brain membrane fraction or cell lysates); from tissue; host or cells: mouse brain membrane fraction (or cell lysates, not specified)
T2 sequence (O08914 1-579): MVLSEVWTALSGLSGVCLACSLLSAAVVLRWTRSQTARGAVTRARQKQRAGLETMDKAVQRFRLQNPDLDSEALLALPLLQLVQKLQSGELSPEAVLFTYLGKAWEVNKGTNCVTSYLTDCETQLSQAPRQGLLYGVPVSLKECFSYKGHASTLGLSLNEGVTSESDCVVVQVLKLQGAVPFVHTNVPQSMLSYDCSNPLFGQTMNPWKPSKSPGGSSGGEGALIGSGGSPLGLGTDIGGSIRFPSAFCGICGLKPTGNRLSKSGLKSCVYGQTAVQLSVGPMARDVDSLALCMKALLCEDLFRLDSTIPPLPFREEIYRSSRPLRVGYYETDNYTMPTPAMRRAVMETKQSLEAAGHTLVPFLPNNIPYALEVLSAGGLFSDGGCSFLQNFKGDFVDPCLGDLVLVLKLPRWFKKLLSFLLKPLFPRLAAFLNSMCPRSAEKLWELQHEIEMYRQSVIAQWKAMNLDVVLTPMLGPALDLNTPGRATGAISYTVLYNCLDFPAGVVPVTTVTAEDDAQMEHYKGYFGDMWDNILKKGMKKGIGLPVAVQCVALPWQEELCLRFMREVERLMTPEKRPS
Experimental: as §1, §2

ABHD6 = target: T3, ABHD6 (Mus musculus, UniProt Q8R2Y0); details: for inhibition at 1 µM: 1 μM inhibitor, read-out: % Inhibition at 1 μM, C = ABHD6; for inhibition at 10 µM: 10 μM inhibitor, read-out: % Inhibition at 10 μM, C = ABHD6; for IC50: mouse brain membrane fraction or cell lysates, 30 min preincubation at 37° C., read-out: Mouse (IC50 value, nM) ABHD6
T3 construct: Proteomes (mouse brain membrane fraction or cell lysates); from tissue; host or cells: mouse brain membrane fraction (or cell lysates, not specified)
T3 sequence (Q8R2Y0 1-336): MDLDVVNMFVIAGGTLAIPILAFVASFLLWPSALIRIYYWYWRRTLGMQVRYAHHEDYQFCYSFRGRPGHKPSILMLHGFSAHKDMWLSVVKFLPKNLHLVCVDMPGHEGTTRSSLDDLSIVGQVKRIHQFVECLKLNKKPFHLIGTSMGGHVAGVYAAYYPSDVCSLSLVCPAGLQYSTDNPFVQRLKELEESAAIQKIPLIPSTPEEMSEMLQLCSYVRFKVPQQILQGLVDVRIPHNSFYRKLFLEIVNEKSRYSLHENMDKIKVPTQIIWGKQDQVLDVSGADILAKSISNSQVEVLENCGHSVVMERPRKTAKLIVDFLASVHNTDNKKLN
Experimental: as §1, §2

MAGL = target: T4, MAGL (Mus musculus, UniProt O35678); details: for inhibition at 10 µM: 10 μM inhibitor; for inhibition at 1 µM: 1 μM inhibitor; for IC50: mouse brain membrane fraction or cell lysates, 30 min preincubation at 37° C., read-out: Mouse (IC50 value, nM) MAGL
T4 construct: Proteomes (mouse brain membrane fraction or cell lysates); from tissue; host or cells: mouse brain membrane fraction (or cell lysates, not specified)
T4 sequence (O35678 1-303): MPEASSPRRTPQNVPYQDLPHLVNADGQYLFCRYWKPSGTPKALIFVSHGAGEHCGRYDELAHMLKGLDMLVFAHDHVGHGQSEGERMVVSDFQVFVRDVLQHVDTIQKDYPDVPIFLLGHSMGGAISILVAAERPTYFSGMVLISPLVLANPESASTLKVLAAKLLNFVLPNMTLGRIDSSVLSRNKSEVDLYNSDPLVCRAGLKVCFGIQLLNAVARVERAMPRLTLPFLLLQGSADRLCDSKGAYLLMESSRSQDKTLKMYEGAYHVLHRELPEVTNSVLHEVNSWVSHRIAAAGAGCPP
Experimental: as §1, §2

inhibition at 10 µM (FAAH) | inhibition at 1 µM (ABHD6) | inhibition at 10 µM (ABHD6) | inhibition at 10 µM (MAGL) | inhibition at 1 µM (FAAH) | inhibition at 1 µM (MAGL) | IC50 (ABHD6) | Structure (SMILES) | also measured
< 25% | 25 to 75% | > 75% | < 25% | – | – | – | O=C(c1cnn(C(=O)N2CCN(Cc3ccncc3)CC2)c1)N1CCOCC1 [Example 52, (4-(Morpholine-4-carbonyl)-1H-pyrazol-1-yl)(4-(pyridin-4-ylmethyl)piperazin-1-yl)methanone] | inhibition at 1 µM (PLA2G7): < 25%; inhibition at 10 µM (PLA2G7): > 75%
> 75% | > 75% | > 75% | > 75% | > 75% | > 75% | – | CC(C)(C)OC(=O)N1CCN(C(=O)n2cc(C#N)cn2)CC1 [Example 6, tert-Butyl 4-(4-cyano-1H-pyrazole-1-carbonyl)piperazine-1-carboxylate] | inhibition at 1 µM (PLA2G7): > 75%; inhibition at 10 µM (PLA2G7): > 75%
– | – | – | – | – | – | – | CCN(Cc1cccc(Cl)c1)C(=O)n1cc(C)cn1 [Example 245, N-(3-chlorobenzyl)-N-ethyl-4-methyl-1H-pyrazole-1-carboxamide] | inhibition at 1 µM (PLA2G7; gel-based competitive ABPP): < 25%; inhibition at 1 µM (FAAH; gel-based competitive ABPP): < 25%; inhibition at 1 µM (ABHD6; gel-based competitive ABPP): < 25%; inhibition at 1 µM (MAGL; gel-based competitive ABPP): < 25%
25 to 75% | > 75% | > 75% | < 25% | < 25% | < 25% | 100 to 1000 nM | Cc1ccccc1-c1cnn(C(=O)N2CCN(Cc3c(N4CCCC4)cccc3C(F)(F)F)CC2)c1 [Example 114, (4-(2-(Pyrrolidin-1-yl)-6-(trifluoromethyl)benzyl)piperazin-1-yl)(4-(o-tolyl)-1H-pyrazol-1-yl)methanone] | –
> 75% | – | > 75% | < 25% | – | – | – | Cc1ccc(-c2cnn(C(=O)N3CCCC3)c2)cc1 [Example 104, Pyrrolidin-1-yl(4-(p-tolyl)-1H-pyrazol-1-yl)methanone] | –
> 75% | > 75% | > 75% | > 75% | < 25% | > 75% | 100 to 1000 nM | O=C(N1CCN(C(c2ccc(Cl)cc2)c2ccc(Cl)cc2)CC1)n1cc(C(F)(F)F)cn1 [Example 118, (4-(Bis(4-chlorophenyl)methyl)piperazin-1-yl)(4-(trifluoromethyl)-1H-pyrazol-1-yl)methanone] | IC50 (FAAH): > 1000 nM; IC50 (MAGL): < 100 nM
– | – | – | – | – | – | > 1000 nM | O=C(N1CCN(C(c2ccc(Cl)cc2)c2ccc(Cl)cc2)CC1)n1cccn1 [Example 46, (4-(Bis(4-chlorophenyl)methyl)piperazin-1-yl)(1H-pyrazol-1-yl)methanone] | IC50 (FAAH): > 1000 nM; IC50 (MAGL): < 100 nM
< 25% | 25 to 75% | > 75% | > 75% | < 25% | 25 to 75% | – | CC(C)c1cnn(C(=O)N2CCN(C(c3ccc(Cl)cc3)c3ccc(Cl)cc3)CC2)c1 [Example 120, (4-(Bis(4-chlorophenyl)methyl)piperazin-1-yl)(4-isopropyl-1H-pyrazol-1-yl)methanone] | –
– | > 75% | – | – | < 25% | > 75% | – | O=C(N1CCN(C(c2ccc3c(c2)COC3)c2ccc3c(c2)COC3)CC1)n1cc(Cl)cn1 [Example 95, (4-(Bis(1,3-dihydroisobenzofuran-5-yl)methyl)piperazin-1-yl)(4-chloro-1H-pyrazol-1-yl)methanone] | –
< 25% | < 25% | > 75% | > 75% | < 25% | 25 to 75% | – | O=C(N1CCN(C(c2ccc(Cl)cc2)c2ccc(Cl)cc2)CC1)n1cc(-c2ccccc2)cn1 [Example 119, (4-(Bis(4-chlorophenyl)methyl)piperazin-1-yl)(4-phenyl-1H-pyrazol-1-yl)methanone] | –
– | > 75% | – | – | > 75% | > 75% | – | O=C(N1CCN(Cc2c(N3CCCC3)cccc2C(F)(F)F)CC1)n1cc(Cl)cn1 [Example 99, (4-Chloro-1H-pyrazol-1-yl)(4-(2-(pyrrolidin-1-yl)-6-(trifluoromethyl)benzyl)piperazin-1-yl)methanone] | –
– | – | – | – | – | – | 100 to 1000 nM | O=C(NC1CC1)c1cnn(C(=O)N2CCN(C(c3ccc(Cl)cc3)c3ccc(Cl)cc3)CC2)c1 [Example 49, 1-(4-(Bis(4-chlorophenyl)methyl)piperazine-1-carbonyl)-N-cyclopropyl-1H-pyrazole-4-carboxamide] | IC50 (FAAH): > 1000 nM; IC50 (MAGL): 100 to 1000 nM
> 75% | – | > 75% | < 25% | – | – | – | O=C(N1CCCC1)n1cc(-c2ccc(Cl)cc2)cn1 [Example 105, (4-(4-Chlorophenyl)-1H-pyrazol-1-yl)(pyrrolidin-1-yl)methanone] | –
> 75% | – | > 75% | > 75% | – | – | – | O=C(N1CCCCC1)n1cc(Cl)cn1 [Example 96, (4-Chloro-1H-pyrazol-1-yl)(piperidin-1-yl)methanone] | –
< 25% | – | < 25% | < 25% | – | – | – | CN1CCCN(C(=O)n2cc(Cl)cn2)CC1 [Example 190, (4-Chloro-1H-pyrazol-1-yl)(4-methyl-1,4-diazepan-1-yl)methanone] | –
> 75% | > 75% | > 75% | > 75% | 25 to 75% | > 75% | 100 to 1000 nM | O=C(N1CCN(Cc2c(N3CCCC3)cccc2C(F)(F)F)CC1)n1cc(F)cn1 [Example 113, (4-Fluoro-1H-pyrazol-1-yl)(4-(2-(pyrrolidin-1-yl)-6-(trifluoromethyl)benzyl)piperazin-1-yl)methanone] | IC50 (FAAH): > 1000 nM; IC50 (MAGL): < 100 nM
– | – | – | – | – | – | 100 to 1000 nM | O=C(N1CCN(C(c2ccc(Cl)cc2)c2ccc(Cl)cc2)CC1)n1cc(Cl)cn1 [Example 100, (4-(Bis(4-chlorophenyl)methyl)piperazin-1-yl)(4-chloro-1H-pyrazol-1-yl)methanone] | IC50 (FAAH): > 1000 nM; IC50 (MAGL): < 100 nM
